Measured values: PubChem BioAssay (NCI)
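Cells were grown in 96-well plates and exposed to each compound for 48 hours at five concentrations; endpoints were interpolated linearly between bracketing concentrations, or set to the highest concentration if not reached. The concentration for full growth arrest is given as TGI.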

Key:
Assay in all cases: DTP human tumour cell line panel, 48 h
786-0 renal = system: 786-0 renal
A498 renal = system: A498 renal
ACHN renal = system: ACHN renal
CAKI-1 renal = system: CAKI-1 renal
CCRF-CEM leukemia = system: CCRF-CEM leukemia
COLO 205 colon = system: COLO 205 colon
DU-145 prostate = system: DU-145 prostate
EKVX NSCLC = system: EKVX NSCLC
HCC-2998 colon = system: HCC-2998 colon
HCT-15 colon = system: HCT-15 colon
HL-60(TB) leukemia = system: HL-60(TB) leukemia
HOP-62 NSCLC = system: HOP-62 NSCLC
HOP-92 NSCLC = system: HOP-92 NSCLC
HS 578T breast = system: HS 578T breast
HT29 colon = system: HT29 colon
IGROV1 ovarian = system: IGROV1 ovarian
K-562 leukemia = system: K-562 leukemia
KM12 colon = system: KM12 colon
LOX IMVI melanoma = system: LOX IMVI melanoma
M14 melanoma = system: M14 melanoma
MALME-3M melanoma = system: MALME-3M melanoma
MCF7 breast = system: MCF7 breast
MDA-MB-231 breast = system: MDA-MB-231 breast
MDA-MB-435 = system: MDA-MB-435
MDA-N = system: MDA-N
MOLT-4 leukemia = system: MOLT-4 leukemia
NCI-H226 lung = system: NCI-H226 lung
NCI-H23 lung = system: NCI-H23 lung
NCI-H460 lung = system: NCI-H460 lung
NCI-H522 lung = system: NCI-H522 lung
NCI/ADR-RES ovarian = system: NCI/ADR-RES ovarian
OVCAR-3 ovarian = system: OVCAR-3 ovarian
OVCAR-4 ovarian = system: OVCAR-4 ovarian
OVCAR-5 ovarian = system: OVCAR-5 ovarian
OVCAR-8 ovarian = system: OVCAR-8 ovarian
PC-3 prostate = system: PC-3 prostate
RPMI-8226 leukemia = system: RPMI-8226 leukemia
RXF 393 renal = system: RXF 393 renal
SF-268 CNS = system: SF-268 CNS
SF-295 CNS = system: SF-295 CNS
SF-539 CNS = system: SF-539 CNS
SK-MEL-2 melanoma = system: SK-MEL-2 melanoma
SK-MEL-28 melanoma = system: SK-MEL-28 melanoma
SK-MEL-5 melanoma = system: SK-MEL-5 melanoma
SK-OV-3 ovarian = system: SK-OV-3 ovarian
SN12C renal = system: SN12C renal
SNB-19 CNS = system: SNB-19 CNS
SNB-75 CNS = system: SNB-75 CNS
SR leukemia = system: SR leukemia
SW-620 colon = system: SW-620 colon
T-47D breast = system: T-47D breast
TK-10 renal = system: TK-10 renal
U251 CNS = system: U251 CNS
UACC-257 melanoma = system: UACC-257 melanoma
UO-31 renal = system: UO-31 renal

Measured: TGI

S=C1C(CCCOCc2ccccc2)C2CCCC23CC2(CCN13)OCCS2 (stereo not given)
> 10 µM: all assays above
